Measurements published in PubChem BioAssay AID328 (DTP/NCI, 2004).
“And” between values parts separate entries of the source, which are not always exact repeats. Identical values can stand only once. Inconclusive results and toxic doses are left out.

System: BDF1 mice, P388 leukemia ip, median survival T/C
Test: NCI In Vivo Anticancer Drug Screen. Data for tumor model P388 Leukemia (intraperitoneal) in B6D2F1 (BDF1) mice
Conditions: endpoint: median survival time, higher = longer survival
Outline: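 Vehicle-dosed animals serve as the reference; survival of compound-dosed, tumour-implanted mice is divided by it.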

[1] = dose: 100.0 mg/kg/injection, schedule: Q01DX009 (ip), vehicle: Klucel (hydroxypropylcellulose) (HPC)

In the case of `CC1(C)N=C(N)N=C(N)N1c1ccc(CCCCc2ccc(S(=O)(=O)F)cc2)c(Cl)c1`, the T/C (dose: 0.75 mg/kg/injection, schedule: Q01DX009 (ip), vehicle: saline) is reported as 160 % of control, the T/C (dose: 1.0 mg/kg/injection, schedule: Q01DX009 (ip), vehicle: saline) is reported as 150 % of control and the T/C (dose: 1.5 mg/kg/injection, schedule: Q01DX009 (ip), vehicle: saline) is reported as 151 % of control. For the same compound, the T/C (dose: 1.78 mg/kg/injection, schedule: Q01DX009 (ip), vehicle: saline) was 168 % of control, the T/C (dose: 2.25 mg/kg/injection, schedule: Q01DX009 (ip), vehicle: saline) was 174 % of control and the T/C (dose: 2.66 mg/kg/injection, schedule: Q01DX009 (ip), vehicle: saline) was 174 % of control. The T/C (dose: 4.0 mg/kg/injection, schedule: Q01DX009 (ip), vehicle: saline) was 157 % of control, the T/C (dose: 4.4 mg/kg/injection, schedule: Q01DX009 (ip), vehicle: saline) was 174 % of control and the T/C (dose: 6.0 mg/kg/injection, schedule: Q01DX009 (ip), vehicle: saline) was 158 % of control. For the same compound, the T/C (dose: 6.6 mg/kg/injection, schedule: Q01DX009 (ip), vehicle: saline) was 173 % of control, the T/C (dose: 10.0 mg/kg/injection, schedule: Q01DX009 (ip), vehicle: saline) was 201 % of control and the T/C (dose: 12.5 mg/kg/injection, schedule: Q04DX003 (ip), vehicle: saline) was 118 % of control. For the same compound, the T/C (dose: 15.0 mg/kg/injection, schedule: Q01DX009 (ip), vehicle: saline) was 204 % of control, the T/C (dose: 18.7 mg/kg/injection, schedule: Q01DX009 (ip), vehicle: saline) was 195 % of control and the T/C (dose: 37.5 mg/kg/injection, schedule: Q01DX009 (ip), vehicle: saline) was 245 % of control. The T/C (dose: 50.0 mg/kg/injection, schedule: Q04DX003 (ip), vehicle: saline) was 154 % of control and the T/C (dose: 75.0 mg/kg/injection, schedule: Q04DX003 (ip), vehicle: saline) was 150 % of control.

For `NC1=NNC(N)=NN1`, the T/C (dose: 12.5 mg/kg/injection, schedule: Q01DX009 (ip), vehicle: saline) was 94 % of control, the T/C (dose: 25.0 mg/kg/injection, schedule: Q01DX009 (ip), vehicle: saline) was 100 % of control and the T/C (dose: 50.0 mg/kg/injection, schedule: Q01DX009 (ip), vehicle: saline) was 96 % of control.

With `COc1ccc2nc(N)n(C(=O)c3ccccc3)c(=O)c2c1` the T/C (dose: 100.0 mg/kg/injection, schedule: Q01DX001 (ip), vehicle: saline with Tween-80) was 101 % of control, the T/C (dose: 200.0 mg/kg/injection, schedule: Q01DX001 (ip), vehicle: saline with Tween-80) was 109 % of control and the T/C (dose: 400.0 mg/kg/injection, schedule: Q01DX001 (ip), vehicle: saline with Tween-80) was 109 % of control.

With `O=C(Nc1ccccc1O)c1ccccc1` the T/C (dose: 100.0 mg/kg/injection, schedule: Q04DX003 (ip), vehicle: saline sonified) was 90 % of control, the T/C (dose: 200.0 mg/kg/injection, schedule: Q04DX003 (ip), vehicle: saline sonified) was 100 % of control and the T/C (dose: 400.0 mg/kg/injection, schedule: Q04DX003 (ip), vehicle: saline sonified) was 90 % of control.

For `CCOC(=O)c1cnn(-c2ccccc2)c1C`, the T/C [1] was 104 % of control, the T/C (dose: 100.0 mg/kg/injection, schedule: Q04DX003 (ip), vehicle: Klucel (hydroxypropylcellulose) (HPC)) was 104 % of control and the T/C (dose: 200.0 mg/kg/injection, schedule: Q01DX009 (ip), vehicle: Klucel (hydroxypropylcellulose) (HPC)) was 100 % of control. The T/C (dose: 200.0 mg/kg/injection, schedule: Q04DX003 (ip), vehicle: Klucel (hydroxypropylcellulose) (HPC)) was 87 % of control, the T/C (dose: 400.0 mg/kg/injection, schedule: Q01DX009 (ip), vehicle: Klucel (hydroxypropylcellulose) (HPC)) was 90 % of control and the T/C (dose: 400.0 mg/kg/injection, schedule: Q04DX003 (ip), vehicle: Klucel (hydroxypropylcellulose) (HPC)) was 104 % of control.

`C[As](C)SC(CO)C1OC2OC(C)(C)OC2C1O` (stereo not given) was tested, and the T/C (dose: 12.5 mg/kg/injection, schedule: Q01DX009 (ip), vehicle: saline + alcohol) was 97 % of control, the T/C (dose: 25.0 mg/kg/injection, schedule: Q01DX009 (ip), vehicle: saline + alcohol) was 100 % of control and the T/C (dose: 50.0 mg/kg/injection, schedule: Q01DX009 (ip), vehicle: saline + alcohol) was 106 % of control.

In the case of `C[C@@H]1C[C@@]2(O[C@@H]2C)C(=O)O[C@@H]2CCN3CC=C(COC(=O)[C@]1(C)O)[C@H]23`, the T/C (dose: 20.0 mg/kg/injection, schedule: Q01DX010 (ip), vehicle: carboxymethylcellulose (CMC)) is reported as 110 % of control and the T/C (dose: 40.0 mg/kg/injection, schedule: Q01DX010 (ip), vehicle: carboxymethylcellulose (CMC)) is reported as 100 % of control.

In the case of `Cc1cc(=O)c2c(C)cccc2[nH]1`, the T/C (dose: 6.25 mg/kg/injection, schedule: Q04DX003 (ip), vehicle: saline sonified) is reported as 104 % of control, the T/C (dose: 12.5 mg/kg/injection, schedule: Q04DX003 (ip), vehicle: saline sonified) is reported as 109 % of control and the T/C (dose: 25.0 mg/kg/injection, schedule: Q01DX009 (ip), vehicle: saline with Tween-80) is reported as 113 % of control. For the same compound, the T/C (dose: 25.0 mg/kg/injection, schedule: Q04DX003 (ip), vehicle: saline sonified) was 100 % of control.

With `CO[C@H]1CC=C2CCN3CCCc4cc5c(cc4[C@]23C1)OCO5` the T/C (dose: 10.0 mg/kg/injection, schedule: Q01DX009 (ip), vehicle: alcohol) was 100 % of control and the T/C (dose: 20.0 mg/kg/injection, schedule: Q01DX009 (ip), vehicle: alcohol) was 100 % of control.

For `CN(C(=N)N)c1ccc(C(=O)Oc2ccc([N+](=O)[O-])cc2)cc1`, the T/C (dose: 12.5 mg/kg/injection, schedule: Q01DX009 (ip), vehicle: water) was 100 % of control, the T/C (dose: 18.75 mg/kg/injection, schedule: Q04DX003 (ip), vehicle: water) was 104 % of control and the T/C (dose: 25.0 mg/kg/injection, schedule: Q01DX009 (ip), vehicle: water) was 100 % of control. The T/C (dose: 37.5 mg/kg/injection, schedule: Q04DX003 (ip), vehicle: water) was 109 % of control, the T/C (dose: 50.0 mg/kg/injection, schedule: Q01DX009 (ip), vehicle: water) was 108 % of control and the T/C (dose: 75.0 mg/kg/injection, schedule: Q04DX003 (ip), vehicle: water) was 104 % of control and 117 % of control. For the same compound, the T/C (dose: 100.0 mg/kg/injection, schedule: Q01DX009 (ip), vehicle: water) was 104 % of control, the T/C (dose: 100.0 mg/kg/injection, schedule: Q04DX003 (ip), vehicle: water) was 99 % of control and the T/C (dose: 150.0 mg/kg/injection, schedule: Q04DX003 (ip), vehicle: water) was 117 % of control. The T/C (dose: 200.0 mg/kg/injection, schedule: Q04DX003 (ip), vehicle: water) was 89 % of control and the T/C (dose: 400.0 mg/kg/injection, schedule: Q04DX003 (ip), vehicle: water) was 89 % of control.

With `CC(C#N)(Nc1ccccc1)c1ccco1` (stereo not given) the T/C (dose: 6.25 mg/kg/injection, schedule: Q04DX003 (ip), vehicle: other) was 100 % of control, the T/C (dose: 12.5 mg/kg/injection, schedule: Q04DX003 (ip), vehicle: other) was 100 % of control and the T/C (dose: 25.0 mg/kg/injection, schedule: Q04DX003 (ip), vehicle: other) was 100 % of control.

In the case of `NC(Cc1ccc(OC2CCCC2)c(N(CCCl)CCCl)c1)C(=O)O` (stereo not given), the T/C (dose: 0.5 mg/kg/injection, schedule: Q04DX003 (ip), vehicle: Klucel (hydroxypropylcellulose) (HPC)) is reported as 104 % of control, the T/C (dose: 1.0 mg/kg/injection, schedule: Q04DX003 (ip), vehicle: Klucel (hydroxypropylcellulose) (HPC)) is reported as 118 % of control and the T/C (dose: 2.5 mg/kg/injection, schedule: Q04DX003 (ip), vehicle: saline) is reported as 195 % of control. The T/C (dose: 5.0 mg/kg/injection, schedule: Q04DX003 (ip), vehicle: saline) was 227 % of control, the T/C (dose: 7.5 mg/kg/injection, schedule: Q04DX003 (ip), vehicle: saline) was 163 % of control and the T/C (dose: 15.0 mg/kg/injection, schedule: Q04DX003 (ip), vehicle: other) was 179 % of control. The T/C (dose: 15.0 mg/kg/injection, schedule: Q04DX003 (ip), vehicle: saline) was 154 % of control, the T/C (dose: 20.0 mg/kg/injection, schedule: Q04DX003 (ip), vehicle: other) was 87 % of control and the T/C (dose: 30.0 mg/kg/injection, schedule: Q04DX003 (ip), vehicle: saline) was 168 % of control.

`COc1ccc2c(Cc3ccccc3)cncc2c1O` was tested, and the T/C (dose: 6.25 mg/kg/injection, schedule: Q01DX009 (ip), vehicle: Klucel (hydroxypropylcellulose) (HPC)) was 99 % of control, the T/C (dose: 12.5 mg/kg/injection, schedule: Q01DX009 (ip), vehicle: Klucel (hydroxypropylcellulose) (HPC)) was 100 % of control and the T/C (dose: 25.0 mg/kg/injection, schedule: Q01DX009 (ip), vehicle: Klucel (hydroxypropylcellulose) (HPC)) was 105 % of control. The T/C (dose: 50.0 mg/kg/injection, schedule: Q01DX009 (ip), vehicle: Klucel (hydroxypropylcellulose) (HPC)) was 108 % of control and the T/C [1] was 117 % of control.

With `CCN(CC)CCOC(=O)c1ccc(OCCOc2ccc(C(C)(C)CC(C)(C)C)cc2)c([N+](=O)[O-])c1` the T/C (dose: 75.0 mg/kg/injection, schedule: Q04DX003 (ip), vehicle: saline sonified) was 110 % of control, the T/C (dose: 150.0 mg/kg/injection, schedule: Q04DX003 (ip), vehicle: saline sonified) was 110 % of control and the T/C (dose: 300.0 mg/kg/injection, schedule: Q04DX003 (ip), vehicle: saline sonified) was 105 % of control.

For `CCCCCCOc1cccc(OCCCC[N+]2(CC)CCCCC2)c1`, the T/C (dose: 6.25 mg/kg/injection, schedule: Q01DX009 (ip), vehicle: saline) was 108 % of control.
